Laboratory results: patent US11717503B2 (priority 2020, dated 2023)
Values joined by “and” are separate entries in the source; they are usually repeats but may differ in a detail not shown here. Equal entries are not always repeated.

Assays:
Parameters in all cases: species or system C57BL/6 mice
[1] = test system: H7N9 avian influenza virus; settings: mouse, in vivo
[2] = test system: H7N9 avian influenza virus; settings: mouse, in vivo, po
IL-1β = settings: mouse, in vivo, po
IFN-γ = settings: mouse, in vivo
[3] = test system: H7N9 avian influenza virus; settings: mouse, in vivo; remark: listed apart in the source

| SMILES | Effect on weight loss caused by H7N9 infection (in words) [1] | Mortality [2] | Number of survivals 15 days post infection [2] | Survival rate [2] | IL-1β content in lung homogenate (IL-1β) | IFN-γ level vs control group (in words) (IFN-γ) | IFN-γ content in lung homogenate (IFN-γ; po) | Effect on proliferation of influenza virus in the lungs (in words) [3] | Virus content in the lungs (virus titer) ([3]; po) |
| --- | --- | --- | --- | --- | --- | --- | --- | --- | --- |
| CC[C@H](C)[C@H](N)C(=O)O [Isoleucine, isoleucine] | did not improve the weight loss | 100% | 0 | 0% |  |  |  |  |  |
| CC(C)[C@H](N)C(=O)O [Valine, valine] | alleviated the weight loss | 60% | 4 | 40% | 691.546 ± 125.531 pg/mL and 512.836 ± 104.971 pg/mL | significantly higher | 121.927 ± 10.241 pg/mL and 108.583 ± 10.700 pg/mL | significantly reduce the proliferation | 4.168 ± 0.614 log10EID50/ml |
| NCCCC[C@H](N)C(=O)O [Lysine, lysine] | alleviated the weight loss | 90% | 1 | 10% |  |  |  |  |  |
